Results taken from patent US6872805B2 (Bristol-Myers Squibb Company, priority 2000, dated 2005).

Target: HCV NS3/4A protease complex (Hepatitis C virus genotype 1a, UniProt P27958, C1454S/C1711G)
Assay: Recombinant HCV NS3/4A protease complex FRET peptide assay (strain not stated)
Type: biochemical

HCV NS3/4A protease complex, sequence (P27958 1027-1711, stated change not applied): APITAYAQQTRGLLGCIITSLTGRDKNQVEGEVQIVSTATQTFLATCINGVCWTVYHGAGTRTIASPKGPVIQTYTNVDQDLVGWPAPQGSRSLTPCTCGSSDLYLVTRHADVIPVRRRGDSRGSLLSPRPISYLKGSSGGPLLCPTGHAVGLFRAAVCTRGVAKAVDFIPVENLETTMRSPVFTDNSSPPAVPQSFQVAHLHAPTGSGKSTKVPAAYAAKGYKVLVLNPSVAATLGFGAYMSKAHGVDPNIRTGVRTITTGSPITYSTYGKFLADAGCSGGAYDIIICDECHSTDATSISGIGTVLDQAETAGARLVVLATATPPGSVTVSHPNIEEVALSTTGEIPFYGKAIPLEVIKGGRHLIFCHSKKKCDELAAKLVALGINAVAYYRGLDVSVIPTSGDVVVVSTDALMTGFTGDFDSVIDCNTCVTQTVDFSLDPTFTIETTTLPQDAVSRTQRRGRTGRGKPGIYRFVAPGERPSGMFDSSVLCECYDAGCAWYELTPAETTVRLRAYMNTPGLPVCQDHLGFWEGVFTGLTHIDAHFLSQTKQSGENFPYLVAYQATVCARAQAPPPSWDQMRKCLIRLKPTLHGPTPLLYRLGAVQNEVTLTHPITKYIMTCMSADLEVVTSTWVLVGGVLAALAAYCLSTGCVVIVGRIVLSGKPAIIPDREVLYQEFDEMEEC
HCV NS3/4A protease complex, sequence (P27958 1027-1711, stated change not applied): as above

C=CC1C[C@]1(NC(=O)[C@@H]1C[C@@H](Oc2cc(-c3ccccc3)nc3cc(OC)ccc23)CN1C(=O)C(NC(=O)OC(C)(C)C)C(C)(C)C)C(=O)NS(=O)(=O)c1ccc(NC(C)=O)cc1 (some centres unmarked) [Compound 58]
IC50 (IC50, NS3/4A protease enzyme assay, strain not stated, activity ranges): < 50 nM
IC50 (IC50, strain not stated): 21 nM
